Reference: patent US9296704B2, “Substituted pyrimidines as protein kinase inhibitors” (CELGENE AVILOMICS RESEARCH, INC., priority 2007, dated 2016)

Legend:
[1] = biological target: BTK (Homo sapiens, UniProt Q06187); assay: Omnia assay for potency against BTK; type: biochemical; conditions: read-out: BTK Inhibition
In short: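 BTK (5 nM) was pre-incubated 30 min at 27° C with serially diluted compounds in Tris pH 7.5/MgCl2 buffer, then started with […] and Y5-Sox peptide 10 mM (ATP KMapp ~36 mM). Fluorescence (ex360/em485) was read continuously over 60 min. IC50 came from initial velocities using a variable-slope fit.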

[2] = biological target: T1, JAK3 (Homo sapiens, UniProt P52333); assay: Omnia assay for potency against JAK3; type: biochemical; conditions: read-out: JAK3 Inhibition
T1 sequence (P52333 1-1124): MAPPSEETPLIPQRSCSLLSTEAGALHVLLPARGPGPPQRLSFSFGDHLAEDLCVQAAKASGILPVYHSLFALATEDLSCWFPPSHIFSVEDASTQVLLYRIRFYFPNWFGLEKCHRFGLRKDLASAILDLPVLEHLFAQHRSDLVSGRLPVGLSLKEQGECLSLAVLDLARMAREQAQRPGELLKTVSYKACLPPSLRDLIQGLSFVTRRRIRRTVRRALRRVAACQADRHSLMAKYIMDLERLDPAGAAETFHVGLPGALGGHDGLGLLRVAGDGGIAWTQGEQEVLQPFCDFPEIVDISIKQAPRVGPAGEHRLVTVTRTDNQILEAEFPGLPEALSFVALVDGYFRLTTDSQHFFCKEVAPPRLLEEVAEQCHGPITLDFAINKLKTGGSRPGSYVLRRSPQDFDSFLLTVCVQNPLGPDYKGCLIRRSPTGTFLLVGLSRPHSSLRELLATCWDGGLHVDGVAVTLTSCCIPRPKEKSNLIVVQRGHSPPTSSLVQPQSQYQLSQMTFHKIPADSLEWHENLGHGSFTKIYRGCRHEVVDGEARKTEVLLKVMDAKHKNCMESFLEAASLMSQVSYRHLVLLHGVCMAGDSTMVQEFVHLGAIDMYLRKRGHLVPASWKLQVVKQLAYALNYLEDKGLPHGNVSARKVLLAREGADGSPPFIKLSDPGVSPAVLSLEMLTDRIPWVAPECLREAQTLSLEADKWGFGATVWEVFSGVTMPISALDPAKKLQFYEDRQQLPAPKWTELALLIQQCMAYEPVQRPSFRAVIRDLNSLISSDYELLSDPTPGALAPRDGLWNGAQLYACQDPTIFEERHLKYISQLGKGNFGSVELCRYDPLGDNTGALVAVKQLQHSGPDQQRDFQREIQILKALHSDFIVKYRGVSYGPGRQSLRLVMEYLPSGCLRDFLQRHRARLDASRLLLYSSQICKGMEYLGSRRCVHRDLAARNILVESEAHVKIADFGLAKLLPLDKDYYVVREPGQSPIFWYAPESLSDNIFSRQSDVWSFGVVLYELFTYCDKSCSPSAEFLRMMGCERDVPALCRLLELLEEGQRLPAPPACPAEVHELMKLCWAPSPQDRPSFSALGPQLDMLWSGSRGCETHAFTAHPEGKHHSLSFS
In short: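 Continuous-read Omnia kinase assay with 5 nM JAK3, 5 μM ATP (near apparent Km) and 5 μM Y12-Sox peptide in Tris pH 7.5/MgCl2 buffer; enzyme pre-incubated with compound 30 min at 27 °C. Fluorescence (ex360/em485) read over 60 min; initial velocities fitted against inhibitor concentration to give IC50.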

[3] = biological target: ErbB4 (Homo sapiens, UniProt Q15303); assay: Z'-LYTE biochemical assay, ErbB4 kinase inhibition; conditions: @ 1 μM
Description: (§1) Compounds of the present invention were assayed as inhibitors of one or more of ErbB1, ErbB2, and/or ErbB4 in a manner substantially similar to the method described by Invitrogen Corp (Invitrogen Corporation, 1600 Faraday Avenue, Carlsbad, Calif., CA; http://www.invitrogen.com/downloads/Z-LYTE_Brochure—1205.pdf) using the Z′-LYTE™ biochemical assay procedure or similar biochemical assay. The Z′-LYTE™ biochemical assay employs a fluorescence-based, coupled-enzyme format and is based on the differential sensitivity of phosphorylated and non-phosphorylated peptides to proteolytic cleavage.

[4] = biological target: ErbB2 (Homo sapiens, UniProt P04626); assay: Z'-LYTE biochemical assay, ErbB2 kinase inhibition
Description: as §1

[5] = biological target: T2, EGFR (T790M/L858R) (Homo sapiens, UniProt P00533, L858R/T790M); assay: Omnia continuous-read kinase assay, EGFR (T790M/L858R); type: biochemical; conditions: read-out: EGFR (T790M/L858R) inhibiton
T2 construct: purchased BPS Bioscience 40350
In short: (§2)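 Enzyme pre-incubated 30 min at 27 °C with compound, then ATP/Y12-Sox peptide added; fluorescence (ex360/em485) read continuously 60 min in 20 mM Tris pH 7.5, 5 mM MgCl2, 0.2 mM DTT. WT: 5 nM enzyme, […]; T790M/L858R: 3 nM enzyme, […]. IC50 from initial velocities, variable-slope fit.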

[6] = biological target: T3, EGFR (WT) (Homo sapiens, UniProt P00533); assay: Omnia continuous-read kinase assay, EGFR (WT); type: biochemical; conditions: read-out: EGFR inhibtion
T3 construct: purchased Invitrogen PV3872
In short: as §2

[7] = biological target: ErbB1 (Homo sapiens, UniProt P00533); assay: Z'-LYTE biochemical assay, ErbB1 kinase inhibition; conditions: for inhibition at 0.01 µM: @ 10 nM; for inhibition at 0.1 µM: @ 100 nM
Description: as §1

T3 sequence (P00533 25-1210): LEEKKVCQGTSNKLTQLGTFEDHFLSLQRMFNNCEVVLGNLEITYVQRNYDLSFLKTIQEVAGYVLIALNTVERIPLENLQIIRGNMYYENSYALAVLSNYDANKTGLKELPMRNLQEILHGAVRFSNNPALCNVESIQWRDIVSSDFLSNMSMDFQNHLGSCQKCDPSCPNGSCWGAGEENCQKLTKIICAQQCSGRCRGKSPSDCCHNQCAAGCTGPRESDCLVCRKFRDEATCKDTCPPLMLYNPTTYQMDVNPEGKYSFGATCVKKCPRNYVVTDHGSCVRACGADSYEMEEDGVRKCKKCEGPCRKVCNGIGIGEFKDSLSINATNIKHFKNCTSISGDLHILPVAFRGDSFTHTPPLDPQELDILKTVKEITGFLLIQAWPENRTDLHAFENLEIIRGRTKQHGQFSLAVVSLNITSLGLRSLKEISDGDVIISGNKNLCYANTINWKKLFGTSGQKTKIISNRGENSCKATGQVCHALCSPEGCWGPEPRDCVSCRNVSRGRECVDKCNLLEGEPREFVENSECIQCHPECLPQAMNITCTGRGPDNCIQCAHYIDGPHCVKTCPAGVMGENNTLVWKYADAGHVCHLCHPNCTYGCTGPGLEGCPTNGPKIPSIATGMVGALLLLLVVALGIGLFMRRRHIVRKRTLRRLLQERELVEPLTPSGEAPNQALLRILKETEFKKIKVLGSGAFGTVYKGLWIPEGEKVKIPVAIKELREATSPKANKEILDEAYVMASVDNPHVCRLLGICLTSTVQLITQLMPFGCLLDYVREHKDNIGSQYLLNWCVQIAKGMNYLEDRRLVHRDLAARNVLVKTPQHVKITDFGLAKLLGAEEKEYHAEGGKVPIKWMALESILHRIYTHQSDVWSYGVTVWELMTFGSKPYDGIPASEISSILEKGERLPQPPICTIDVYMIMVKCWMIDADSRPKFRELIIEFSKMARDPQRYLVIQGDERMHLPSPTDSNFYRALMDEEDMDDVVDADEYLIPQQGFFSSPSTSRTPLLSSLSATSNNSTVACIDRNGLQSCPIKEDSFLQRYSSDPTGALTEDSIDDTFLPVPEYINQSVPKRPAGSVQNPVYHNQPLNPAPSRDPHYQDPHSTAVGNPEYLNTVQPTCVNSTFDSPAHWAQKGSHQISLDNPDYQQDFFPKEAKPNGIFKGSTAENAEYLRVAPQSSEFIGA
Chain of ErbB1 (P00533 25-1210): as above
Chain of ErbB2 (P04626 23-1255): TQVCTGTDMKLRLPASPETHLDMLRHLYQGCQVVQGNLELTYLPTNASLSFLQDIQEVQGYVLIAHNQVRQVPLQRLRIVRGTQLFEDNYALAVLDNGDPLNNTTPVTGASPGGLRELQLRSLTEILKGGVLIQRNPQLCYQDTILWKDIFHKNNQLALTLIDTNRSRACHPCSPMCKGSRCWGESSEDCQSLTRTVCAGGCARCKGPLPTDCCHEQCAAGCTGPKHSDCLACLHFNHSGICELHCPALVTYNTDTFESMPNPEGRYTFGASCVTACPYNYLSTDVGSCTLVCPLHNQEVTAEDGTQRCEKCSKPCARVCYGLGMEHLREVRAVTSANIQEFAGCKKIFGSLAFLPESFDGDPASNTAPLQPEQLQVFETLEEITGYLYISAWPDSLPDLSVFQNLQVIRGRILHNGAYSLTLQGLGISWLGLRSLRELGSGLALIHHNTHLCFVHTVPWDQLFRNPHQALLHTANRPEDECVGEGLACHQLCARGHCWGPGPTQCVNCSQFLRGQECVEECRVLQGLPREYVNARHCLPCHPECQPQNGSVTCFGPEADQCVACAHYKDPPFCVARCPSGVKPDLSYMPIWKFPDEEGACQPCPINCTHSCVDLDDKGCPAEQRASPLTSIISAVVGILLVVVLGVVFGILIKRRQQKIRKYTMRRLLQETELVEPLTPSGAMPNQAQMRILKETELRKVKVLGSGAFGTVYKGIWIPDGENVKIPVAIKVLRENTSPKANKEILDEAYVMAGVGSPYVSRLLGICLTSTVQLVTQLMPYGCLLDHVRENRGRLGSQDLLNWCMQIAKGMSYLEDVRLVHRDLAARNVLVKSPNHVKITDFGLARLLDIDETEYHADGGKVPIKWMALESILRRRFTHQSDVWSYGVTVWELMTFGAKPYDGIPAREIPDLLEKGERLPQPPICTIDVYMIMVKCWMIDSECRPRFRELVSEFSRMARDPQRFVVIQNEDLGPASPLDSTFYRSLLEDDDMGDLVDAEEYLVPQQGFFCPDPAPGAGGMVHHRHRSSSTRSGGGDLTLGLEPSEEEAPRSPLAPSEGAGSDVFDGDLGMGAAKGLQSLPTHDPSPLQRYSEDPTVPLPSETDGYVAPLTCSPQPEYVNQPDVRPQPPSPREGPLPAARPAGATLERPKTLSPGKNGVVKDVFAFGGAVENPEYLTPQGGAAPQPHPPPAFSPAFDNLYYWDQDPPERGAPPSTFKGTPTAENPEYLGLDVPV
T2 sequence (P00533 25-1210 T790M/L858R): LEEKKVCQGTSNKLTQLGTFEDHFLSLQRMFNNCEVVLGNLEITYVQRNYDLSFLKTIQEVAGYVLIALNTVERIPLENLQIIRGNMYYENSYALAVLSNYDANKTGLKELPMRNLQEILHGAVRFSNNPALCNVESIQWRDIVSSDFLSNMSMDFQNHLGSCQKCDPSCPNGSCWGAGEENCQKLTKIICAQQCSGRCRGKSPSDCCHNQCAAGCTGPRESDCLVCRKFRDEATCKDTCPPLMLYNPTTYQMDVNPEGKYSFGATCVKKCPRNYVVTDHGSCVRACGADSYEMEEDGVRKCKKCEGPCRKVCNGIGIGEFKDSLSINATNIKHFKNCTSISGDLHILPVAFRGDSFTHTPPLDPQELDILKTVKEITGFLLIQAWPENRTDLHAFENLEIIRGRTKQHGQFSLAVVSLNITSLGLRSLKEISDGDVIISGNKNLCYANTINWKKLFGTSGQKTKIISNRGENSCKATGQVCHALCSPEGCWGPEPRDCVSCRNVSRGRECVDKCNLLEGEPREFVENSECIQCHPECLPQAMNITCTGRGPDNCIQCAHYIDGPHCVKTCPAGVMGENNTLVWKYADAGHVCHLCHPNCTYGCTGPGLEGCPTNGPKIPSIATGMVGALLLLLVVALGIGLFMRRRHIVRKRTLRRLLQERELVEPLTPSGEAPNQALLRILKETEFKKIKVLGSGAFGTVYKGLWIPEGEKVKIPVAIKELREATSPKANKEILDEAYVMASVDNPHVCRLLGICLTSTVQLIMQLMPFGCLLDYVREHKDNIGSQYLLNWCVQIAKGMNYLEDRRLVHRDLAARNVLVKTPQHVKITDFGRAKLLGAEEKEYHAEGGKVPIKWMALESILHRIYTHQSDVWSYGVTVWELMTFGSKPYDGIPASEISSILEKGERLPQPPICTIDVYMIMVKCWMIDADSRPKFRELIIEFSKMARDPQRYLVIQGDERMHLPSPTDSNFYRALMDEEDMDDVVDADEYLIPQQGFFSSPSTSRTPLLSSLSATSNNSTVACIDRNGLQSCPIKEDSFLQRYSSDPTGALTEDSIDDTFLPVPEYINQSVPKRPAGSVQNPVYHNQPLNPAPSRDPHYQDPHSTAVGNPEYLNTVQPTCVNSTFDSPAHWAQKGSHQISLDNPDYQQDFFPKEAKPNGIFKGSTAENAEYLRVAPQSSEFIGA

Q: Which results are given for C=CS(=O)(=O)Nc1cccc(Nc2cc(Nc3ccc(F)c(Cl)c3)ncn2)c1 [I-3, N-{3-[6-(3-chloro-4-fluorophenylamino)-pyrimidin-4-ylamino]phenyl}-ethenesulfonamide]?
A: IC50 [1]: 10 to 100 nM; IC50 [2]: ≤ 10 nM; inhibition at 1 µM [3]: 95%; inhibition at 1 µM [4]: 89%; IC50 [5]: ≤ 10 nM; IC50 [6]: ≤ 10 nM; inhibition at 0.01 µM [7]: 56%; inhibition at 0.1 µM [7]: 96%

Q: What does the source list for C=CC(=O)Nc1cccc(Nc2cc(Oc3cccc(C(F)(F)F)c3)ncn2)c1 [I-9]?
A: IC50 [1]: 100 to 1000 nM; IC50 [2]: 100 to 1000 nM; inhibition at 1 µM [3]: 75%; IC50 [5]: 100 to 1000 nM; IC50 [6]: ≤ 10 nM; inhibition at 1 µM ([7]; @ 1 μM): 100%

Q: CN(C)C/C=C/C(=O)Nc1cccc(Nc2cc(Nc3ccc(F)c(Cl)c3)ncn2)c1 [I-18, (E)-N-{3-[6-(3-chloro-4-fluorophenylamino)-pyrimidin-4-ylamino]phenyl}-4-dimethylamino-2-butenamide] was tested. Which IC50 [1] did it give?
A: The IC50 was 10 to 100 nM.

Q: What about the IC50 [2] of the same compound?
A: Its IC50 is 10 to 100 nM.

Q: What about the inhibition at 1 µM [3] of the same compound?
A: Its inhibition at 1 µM is 94%.

Q: What about the inhibition at 1 µM [4] of the same compound?
A: The inhibition at 1 µM was 91%.

Q: What about the IC50 [5] of the same compound?
A: The IC50 was ≤ 10 nM.

Q: What about the IC50 [6] of the same compound?
A: Its IC50 is ≤ 10 nM.

Q: What does the source list for C=CC(=O)Nc1cccc(Nc2cc(Nc3ccc(F)c(Cl)c3)ncn2)c1 [I-2, N-{3-[6-(3-chloro-4-fluorophenylamino)-pyrimidin-4-ylamino]phenyl}-2-propenamide]?
A: IC50 [1]: 10 to 100 nM; IC50 [2]: ≤ 10 nM; inhibition at 1 µM [3]: 75%; inhibition at 0.1 µM ([4]; @ 100 nM): 39%; inhibition at 1 µM [4]: 96%; IC50 [5]: ≤ 10 nM; IC50 [6]: ≤ 10 nM; inhibition at 0.01 µM [7]: 75%; inhibition at 0.1 µM [7]: 98%
